Data as given in patent US10961202B2, “Bis-benzimidazole compounds and methods of using the same” (THE SCRIPPS RESEARCH INSTITUTE, priority 2017, dated 2021).

The molecules below were run on r(CUG)12-MBNL1 complex (assay: Inhibition of the r(CUG)12-MBNL1 complex measured by TR-FRET). Conditions: Table L; 80 nM RNA, 60 nM MBNL1-His6.
Assay type: biochemical
Molecule `Nc1ccc2nc(-c3ccc(-c4nc5ccc(N)cc5[nH]4)cc3)[nH]c2c1` [Compound 2, 2,2′-(1,4-phenylene)bis(1H-benzo[d]imidazol-6-amine)] has an IC50 of 197 µM. For `N=C(N)Nc1ccc2nc(-c3ccc(-c4nc5ccc(NC(=N)N)cc5[nH]4)cc3)[nH]c2c1` [Compound 3, 1,1′-(2,2′-(1,4-phenylene)bis(1H-benzo[d]imidazole-6,2-diyl))diguanidine], the IC50 was 27 µM. For `CC(=O)Nc1ccc2nc(-c3ccc(-c4nc5ccc(N)cc5[nH]4)cc3)[nH]c2c1` [Compound 4, N-(2-(4-(5-amino-1H-benzo[d]imidazol-2-yl)phenyl)-1H-benzo[d]imidazol-5-yl)acetamide], the IC50 was > 200 µM. Molecule `Nc1ccc2nc(-c3ccc(-c4nc5ccc(Nc6ncccn6)cc5[nH]4)cc3)[nH]c2c1` [Compound 5, 2-(4-(5-amino-1H-benzo[d]imidazol-2-yl)phenyl)-N-(pyrimidin-2-yl)-1H-benzo[d]imidazol-5-amine] has an IC50 of 76 µM. Work on `CC(=O)Nc1ccc2nc(-c3ccc(-c4nc5ccc(NC(C)=O)cc5[nH]4)cc3)[nH]c2c1` [Compound 6, N,N′-(2,2′-(1,4-phenylene)bis(1H-benzo[d]imidazole-5,2-diyl))diacetamide] yielded an IC50 of 112 µM. Work on `CC(=O)Nc1ccc2nc(-c3ccc(-c4nc5ccc(Nc6ncccn6)cc5[nH]4)cc3)[nH]c2c1` [Compound 7, N-(2-(4-(5-(pyrimidin-2-ylamino)-1H-benzo[d]imidazol-2-yl)phenyl)-1H-benzo[d]imidazol-5-yl)acetamide] yielded an IC50 of 80 µM. In the case of `c1cnc(Nc2ccc3nc(-c4ccc(-c5nc6ccc(Nc7ncccn7)cc6[nH]5)cc4)[nH]c3c2)nc1` [Compound 8, 2,2′-(1,4-phenylene)bis(N-(pyrimidin-2-yl)-1H-benzo[d]imidazol-5-amine)], the IC50 is reported as 150 µM. Work on `N#Cc1ccc2nc(-c3ccc(-c4nc5ccc(C#N)cc5[nH]4)cc3)[nH]c2c1` [Compound 9, 2,2′-(1,4-phenylene)bis(1H-benzo[d]imidazole-6-carbonitrile)] yielded an IC50 of 26 µM. `COC(=O)c1ccc2nc(-c3ccc(-c4nc5ccc(C(=O)OC)cc5[nH]4)cc3)[nH]c2c1` [Compound 10, dimethyl 2,2′-(1,4-phenylene)bis(1H-benzo[d]imidazole-6-carboxylate)] was tested, and the IC50 was > 200 µM. `O=C(O)c1ccc2nc(-c3ccc(-c4nc5ccc(C(=O)O)cc5[nH]4)cc3)[nH]c2c1` [Compound 11, 2,2′-(1,4-phenylene)bis(1H-benzo[d]imidazole-6-carboxylic acid)] was tested, and the IC50 was > 200 µM. In the case of `NC(=O)c1ccc2nc(-c3ccc(-c4nc5ccc(C(N)=O)cc5[nH]4)cc3)[nH]c2c1` [Compound 12, 2,2′-(1,4-phenylene)bis(1H-benzo[d]imidazole-6-carboxamide)], the IC50 is reported as > 200 µM. Molecule `N#Cc1ccc2nc(-c3ccc(-c4nc5ccc(C6=NCCN6)cc5[nH]4)cc3)[nH]c2c1` [Compound 13, 2-(4-(6-(4,5-dihydro-1H-imidazol-2-yl)-1H-benzo[d]imidazol-2-yl)phenyl)-1H-benzo[d]imidazole-6-carbonitrile] has an IC50 of 48 µM. `c1cc2nc(-c3ccc(-c4nc5ccc(C6=NCCN6)cc5[nH]4)cc3)[nH]c2cc1C1=NCCN1` [Compound 14, 1,4-bis(6-(4,5-dihydro-1H-imidazol-2-yl)-1H-benzo[d]imidazol-2-yl)benzene] was tested, and the IC50 was 11 µM. Work on `CN(C)CCNC(=O)c1ccc2nc(-c3ccc(-c4nc5ccc(C#N)cc5[nH]4)cc3)[nH]c2c1` [Compound 15] yielded an IC50 of 45 µM. `CCOC(CNC(=N)Nc1ccc2nc(-c3ccc(-c4nc5ccc(N)cc5[nH]4)cc3)[nH]c2c1)OCC` [Compound 17, 1-(2-(4-(5-amino-1H-benzo[d]imidazol-2-yl)phenyl)-1H-benzo[d]imidazol-5-yl)-3-(2,2-diethoxyethyl)guanidine] was tested, and the IC50 was 37 µM. Molecule `CCOC(CNC(=N)Nc1ccc2nc(-c3ccc(-c4nc5ccc(NC(=N)NCC(OCC)OCC)cc5[nH]4)cc3)[nH]c2c1)OCC` [Compound 18, 1,1′-(2,2′-(1,4-phenylene)bis(1H-benzo[d]imidazole-5,2-diyl))bis(3-(2,2-diethoxyethyl)guanidine)] has an IC50 of 35 µM. For `Nc1ccc2nc(-c3ccc(-c4nc5ccc(Nc6ncc[nH]6)cc5[nH]4)cc3)[nH]c2c1` [Compound 19, 2-(4-(5-amino-1H-benzo[d]imidazol-2-yl)phenyl)-N-(1H-imidazol-2-yl)-1H-benzo[d]imidazol-5-amine], the IC50 was 34 µM. In the case of `c1cn(-c2ccc3nc(-c4ccc(-c5nc6ccc(-n7ccnc7)cc6[nH]5)cc4)[nH]c3c2)cn1` [Compound 20, 1,4-bis(6-(1H-imidazol-1-yl)-1H-benzo[d]imidazol-2-yl)benzene], the IC50 is reported as > 200 µM. With `Nc1ccc2nc(-c3ccc(-c4nc5ccc(Nc6ccccn6)cc5[nH]4)cc3)[nH]c2c1` [Compound 21, 2-(4-(5-amino-1H-benzo[d]imidazol-2-yl)phenyl)-N-(pyridin-2-yl)-1H-benzo[d]imidazol-5-amine] the IC50 was 150 µM. `c1ccc(Nc2ccc3nc(-c4ccc(-c5nc6ccc(Nc7ccccn7)cc6[nH]5)cc4)[nH]c3c2)nc1` [Compound 22, 2,2′-(1,4-phenylene)bis(N-(pyridin-2-yl)-1H-benzo[d]imidazol-5-amine)] gave an IC50 of 169 µM. Work on `CC(C)(C)OC(=O)N1CCN=C1Nc1ccc2[nH]c(-c3ccc(-c4nc5cc(N)ccc5[nH]4)cc3)nc2c1` [Compound 23, tert-butyl 2-((2-(4-(5-amino-1H-benzo[d]imidazol-2-yl)phenyl)-1H-benzo[d]imidazol-5-yl)amino)-4,5-dihydro-1H-imidazole-1-carboxylate] yielded an IC50 of 55 µM. With `Nc1ccc2[nH]c(-c3ccc(-c4nc5cc(NC6=NCCN6)ccc5[nH]4)cc3)nc2c1` [Compound 24, 2-(4-(5-amino-1H-benzo[d]imidazol-2-yl)phenyl)-N-(4,5-dihydro-1H-imidazol-2-yl)-1H-benzo[d]imidazol-5-amine] the IC50 was 35 µM. With `N=C(NO)c1ccc2nc(-c3ccc(-c4nc5ccc(C(=N)NO)cc5[nH]4)cc3)[nH]c2c1` [Compound 25, 2,2′-(1,4-phenylene)bis(N-hydroxy-1H-benzo[d]imidazole-6-carboximidamide)] the IC50 was 144 µM.

Same assay, conditions: Table M; 80 nM RNA, 60 nM MBNL1-His6
`C[C@@H](NC(=O)CN(CCN)C(=O)c1ccc(-c2nc3cc(-c4ccc5[nH]c(-c6ccc(C(=O)NCCN(C)C)cc6)nc5c4)ccc3[nH]2)cc1)C(=O)N[C@H](C)C(=O)N[C@H](C)C(=O)N[C@H](C)C(=O)N(CCNC(=O)c1ccc(-c2nc3cc(-c4ccc5[nH]c(-c6ccc(C(=O)NCCN(C)C)cc6)nc5c4)ccc3[nH]2)cc1)CC(N)=O` (single isomer, unassigned) [Compound 443] showed an IC50 of 8 µM. Molecule `C[C@@H](NC(=O)CNCCNC(=O)c1ccc(-c2nc3cc(-c4ccc5[nH]c(-c6ccc(C(=O)NCCN(C)C)cc6)nc5c4)ccc3[nH]2)cc1)C(=O)N[C@H](C)C(=O)N[C@H](C)C(=O)N[C@H](C)C(=O)N(CCNC(=O)c1ccc(-c2nc3cc(-c4ccc5[nH]c(-c6ccc(C(=O)NCCN(C)C)cc6)nc5c4)ccc3[nH]2)cc1)CC(N)=O` (single isomer, unassigned) [Compound 444] has an IC50 of 13 µM. With `CN(CCNC(=O)c1ccc2nc(-c3ccc(-c4nc5ccc(C(=O)NCCN(C)C[C@H](O)[C@@H](O)[C@H](O)[C@H](O)CO)cc5[nH]4)cc3)[nH]c2c1)CC(O)C(O)C(O)C(O)CO` (stereo in doubt) [Compound 175, 2,2′-(1,4-phenylene)bis(N-(2-(methyl((2S,3R,4R,5R)-2,3,4,5,6-pentahydroxyhexyl)amino)ethyl)-1H-benzo[d]imidazole-6-carboxamide)] the IC50 was 49.1 µM.
